Test results: publication PMC1794076, “Bioinorganic Chemistry in Thyroid Gland: Effect of Antithyroid Drugs on Peroxidase-Catalyzed Oxidation and Iodination Reactions” (Bioinorganic Chemistry and Applications, 2006)
Read-outs that look alike come from different tables or passages of the source.

Assays:
[1] = design: method as in earlier work; details: cited from earlier work
lactoperoxidase (LPO) [2] = test system: lactoperoxidase (LPO); design: method as in PMID 16248663; details: cited from earlier work
lactoperoxidase (LPO) [3] = molecular target: lactoperoxidase (LPO); design: method as in PMID 16855736; details: cited from earlier work
[4] = design: method as in PMID 14995183, PMID 16248663; details: oxidizes in air to the corresponding diselenide; cited from earlier work
[5] = Glutathione peroxidase (GPx)-like reduction of H2O2 in the presence of thiols (GSH); format: biochemical; details: catalytic reduction of H2O2 with thiols such as GSH
Source text: Doerge and others have shown that mammalian peroxidases including LPO may activate the antithyroid drugs through S-oxygenation to produce the corresponding sulfoxides or sulfinic acids. They have also shown that the suicide inactivation of LPO and TPO by MMI proceeds through the S-oxygenation of the thione moiety to form a reactive sulfinic acid, which binds covalently to the prosthetic heme and irreversibly blocks enzyme activity. Given the higher reactivity of selenium compounds as compared with the sulfur derivatives toward oxidation, it is possible that the facile oxidation of the selenium compounds may lead to an efficient inhibition of LPO activity. […] The LPO activity was measured several times by increasing the time for the reaction of the test compounds with H2O2. Remarkably, MSeI (2) inhibited the enzyme within few seconds even at lower concentrations, which can be ascribed to the facile oxidation of the reactive selenolate group in 2 (MSeI) by H2O2 or by the oxidized enzyme. […] The initial rates (v0) derived from various concentrations of H2O2 were plotted against the concentration of H2O2. […] The reduction of H2O2 by 2 may become more efficient in the presence of suitable thiols such as GSH because this process may constitute a redox cycle involving a catalytic reduction of H2O2 (glutathione peroxidase (GPx) activity). […]

Cn1cc[nH]c1=S [MMI, methimazole]
hydrogen-bond (hard) basicity pk HB value [1]: 2.11 | Recovery of LPO activity at lower compound and higher H2O2 concentration (lactoperoxidase (LPO) [2]; 10 μM compound, 230 μM H2O2): could not be recovered | LPO activity in the presence of compound (lactoperoxidase (LPO) [2]; 40 μM compound, ABTS oxidation, Figure 3): completely inhibited | Recovery of LPO activity by increasing H2O2 concentration (lactoperoxidase (LPO) [2]; 40 μM compound, initial rates vs H2O2 concentration, LPO 6.5 nM, Figure 3): could not be recovered | IC50 (lactoperoxidase (LPO) [2]; LPO-catalyzed oxidation of ABTS with H2O2, concentration causing 50% inhibition, at least three independent experiments): 7 ± 1.1 µM | IC50 (lactoperoxidase (LPO) [3]; HPLC assay, KI, L-tyrosine, H2O2, LPO, fixed H2O2 concentration, read-out: IC50, inhibition of LPO-catalyzed iodination of L-tyrosine): 5.2 µM

Cn1cc[nH]c1=[Se] [MSeI]
Stability of the zwitterionic form in air [4]: unstable | GPx activity (in words) [5]: high

CCCc1cc(=O)[nH]c(=S)[nH]1 [PTU, 6-n-propyl-2-thiouracil]
hydrogen-bond (hard) basicity pk HB value [1]: ~1.32

Cn1ccnc1[Se][Se]c1nccn1C [compound 8]
Inhibition of LPO-catalyzed oxidation (in words) (lactoperoxidase (LPO) [2]; identical experimental conditions as for the IC50 determination): does not show any noticeable inhibition | Inhibition of LPO-catalyzed iodination (in words) (lactoperoxidase (LPO) [3]; identical conditions as the IC50 determination): did not show any noticeable inhibition
